# Source: ChEMBL document CHEMBL2150959, “Histamine H3 receptor as a drug discovery target” (J Med Chem, 2011)
# Legend:
# Histamine H3 receptor [1] = target: T1, Histamine H3 receptor (Homo sapiens, UniProt Q9Y5N1); assay: Binding affinity to human histamine H3 receptor
# [2] = Oral bioavailability in rat; assay type: ADME, organism-based; conditions: in vivo
# [3] = Half life in rat; assay type: ADME, organism-based; conditions: in vivo
# [4] = Oral bioavailability in dog; assay type: ADME, organism-based, Canis lupus familiaris; conditions: in vivo
# [5] = Half life in dog; assay type: ADME, organism-based, Canis lupus familiaris; conditions: in vivo
# Histamine H1 receptor = Histamine H1 receptor (Homo sapiens, UniProt P35367)
# Cavia porcellus [6] = assay: Antiinflammatory activity in iv dosed wheal and flare guinea pig model; assay type: functional; conditions: read-out: ID50 (the source's name)
# Cavia porcellus [7] = assay: Antiinflammatory activity in po dosed wheal and flare guinea pig model; assay type: functional; conditions: read-out: ID50 (the source's name)
# Histamine H3 receptor [8] = target: T1, Histamine H3 receptor; assay: Inverse agonist activity at human histamine H3 receptor by GTPgammaS binding assay; assay type: functional
# Histamine H3 receptor [9] = target: Histamine H3 receptor (Rattus norvegicus, UniProt Q9QYN8); assay: Binding affinity to rat cortical histamine H3 receptor
# [10] = Oral bioavailability in monkey; assay type: ADME, organism-based, Macaca mulatta; conditions: rhesus monkey, in vivo
# [11] = Half life in monkey; assay type: ADME, organism-based, Macaca mulatta; conditions: rhesus monkey, in vivo
# [12] = Oral bioavailability in rat at 1 mg/kg; assay type: ADME, organism-based; conditions: in vivo
# [13] = Half life in rat at 1 mg/kg, po; assay type: ADME, organism-based; design: dose 1 mg/kg, route oral; conditions: in vivo
# Rattus norvegicus [14] = assay: Increase in paraventricular histamine levels in normal rat at 15 mg/kg, po; assay type: functional
# Rhesus monkey = assay: Reduction of food intake in rhesus monkey at 1 mg/kg; assay type: functional, Macaca mulatta; design: scale not given: the % may be the effect or the level left
# [15] = Half life in human plasma; assay type: ADME, cell-free
# [16] = Oral bioavailability in dog at 1 mg/kg; assay type: ADME, organism-based, Canis lupus familiaris; conditions: in vivo
# [17] = Oral bioavailability in monkey at 1 mg/kg; assay type: ADME, organism-based, Macaca mulatta; conditions: rhesus monkey, in vivo
# [18] = Volume of distribution in rat; assay type: ADME, organism-based; conditions: in vivo
# Rattus norvegicus [19] = assay: Increase in histamine release in sc dosed rat prefrontal cortex; assay type: functional; conditions: read-out: MED
# Rattus norvegicus [20] = assay: Increase in acetyl choline release in sc dosed rat prefrontal cortex; assay type: functional; conditions: read-out: MED
# Rattus norvegicus [21] = assay: Efficacy in sc dosed novel object recognition 24 hrs delay rat model; assay type: functional; conditions: read-out: MED
# T1 sequence (Q9Y5N1 whole entry): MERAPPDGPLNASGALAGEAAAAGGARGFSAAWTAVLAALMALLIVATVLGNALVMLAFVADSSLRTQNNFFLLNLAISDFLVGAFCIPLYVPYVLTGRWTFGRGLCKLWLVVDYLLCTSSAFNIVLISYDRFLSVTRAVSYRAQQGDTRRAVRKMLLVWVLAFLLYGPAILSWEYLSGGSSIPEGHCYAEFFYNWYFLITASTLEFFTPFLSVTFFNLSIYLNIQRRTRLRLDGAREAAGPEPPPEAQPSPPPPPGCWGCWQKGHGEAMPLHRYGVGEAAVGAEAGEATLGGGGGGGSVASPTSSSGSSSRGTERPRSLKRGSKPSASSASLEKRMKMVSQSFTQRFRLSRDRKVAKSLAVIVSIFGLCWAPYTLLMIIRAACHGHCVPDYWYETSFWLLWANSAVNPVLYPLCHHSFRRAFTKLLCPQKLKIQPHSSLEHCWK
# Histamine H1 receptor, sequence (P35367 whole entry): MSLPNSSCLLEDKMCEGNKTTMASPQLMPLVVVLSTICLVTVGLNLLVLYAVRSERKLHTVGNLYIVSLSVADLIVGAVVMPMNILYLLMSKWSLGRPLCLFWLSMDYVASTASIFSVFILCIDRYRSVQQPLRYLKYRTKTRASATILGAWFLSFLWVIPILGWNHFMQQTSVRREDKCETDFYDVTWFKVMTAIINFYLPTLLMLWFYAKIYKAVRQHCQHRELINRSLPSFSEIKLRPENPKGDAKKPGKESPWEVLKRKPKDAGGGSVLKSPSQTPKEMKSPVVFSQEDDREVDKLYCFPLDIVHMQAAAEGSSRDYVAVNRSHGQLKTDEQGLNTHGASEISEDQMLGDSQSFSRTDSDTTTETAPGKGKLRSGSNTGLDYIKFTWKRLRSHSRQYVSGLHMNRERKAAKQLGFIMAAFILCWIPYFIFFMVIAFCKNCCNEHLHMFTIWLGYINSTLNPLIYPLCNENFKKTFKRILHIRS
# Histamine H3 receptor (Rattus norvegicus, UniProt Q9QYN8), sequence (Q9QYN8 whole entry): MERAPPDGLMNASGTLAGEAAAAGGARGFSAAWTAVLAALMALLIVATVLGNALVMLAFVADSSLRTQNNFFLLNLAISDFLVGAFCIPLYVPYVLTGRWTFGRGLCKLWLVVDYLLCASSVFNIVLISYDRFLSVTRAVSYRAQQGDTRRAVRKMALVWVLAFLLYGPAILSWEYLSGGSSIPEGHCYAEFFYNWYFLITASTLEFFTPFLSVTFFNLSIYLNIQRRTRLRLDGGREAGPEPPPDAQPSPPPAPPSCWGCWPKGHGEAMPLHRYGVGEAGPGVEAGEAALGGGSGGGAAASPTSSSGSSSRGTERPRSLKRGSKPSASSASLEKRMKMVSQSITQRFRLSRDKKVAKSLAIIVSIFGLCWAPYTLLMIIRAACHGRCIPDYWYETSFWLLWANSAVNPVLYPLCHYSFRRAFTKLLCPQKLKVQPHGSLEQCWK
structure (smiles),measurement,setting,value
CS(=O)(=O)c1ccc(C(=O)N2CCN(c3ccc(OC4CCN(C5CCC5)CC4)cc3)CC2)cc1,Ki,Histamine H3 receptor [1]; read-out: pKi (converted),0.316 nM
same,bioavailability,[2],> 50%
same,half-life,[3],2 h
same,bioavailability,[4],90%
same,half-life,[5],5 h
same,Ki,Histamine H1 receptor,2510 nM
CC1(C)CCCN(CCCOc2ccc(C3CCN(C(=O)c4ccc(CCC(=O)O)c5ccccc45)CC3)cc2)C1,Ki,Histamine H3 receptor [1]; read-out: pKi (converted),50.1 nM
same,Ki,Histamine H1 receptor,12.6 nM
same,ED50,Cavia porcellus [6],0.6 mg/kg
same,ED50,Cavia porcellus [7],2.8 mg/kg
CC(C)N1CCCN(C(=O)C2CCN(c3ccc(C(F)(F)F)nc3)CC2)CC1,Ki,Histamine H3 receptor [1]; read-out: pKi (converted),0.316 nM
same,IC50,Histamine H3 receptor [8],2.51 nM
N#Cc1ccc(-c2ccc(OCCCN3CCCN(C(=O)[C@@H](Cc4cscn4)NC(=O)c4ccco4)CC3)cc2)cc1,Ki,Histamine H3 receptor [1]; read-out: pKi (converted),1.58 nM
C[C@@H]1CCCN1CCc1cc2cc(-c3cn[nH]c3)ccc2o1,Ki,Histamine H3 receptor [9]; read-out: pKi (converted),3.16 nM
same,Ki,Histamine H3 receptor [1]; read-out: pKi (converted),0.501 nM
same,bioavailability,[2],26%
same,half-life,[3],2.9 h
same,bioavailability,[4],30%
same,half-life,[5],1.7 h
same,bioavailability,[10],8%
same,half-life,[11],1.8 h
C[C@@H]1CCCN1CCc1ccc2cc(-n3ncccc3=O)ccc2c1,Ki,Histamine H3 receptor [1]; read-out: Ki,0.8 nM
same,bioavailability,[12],84%
same,half-life,[13],4.9 h
O=C(/C=C/c1ccc(C(F)(F)F)cc1)N1CCC[C@H]1CN1CCCC1,Activity,Rattus norvegicus [14],339%
same,Activity,Rhesus monkey,75%
C[C@@H]1CCCN1CCc1ccc2cc(-c3ccc(C#N)cc3)ccc2c1,half-life,[3],5.5 h
C[C@@H](N)C(=O)N1CCN(CCCOc2ccc(C(=O)C3CC3)cc2)CC1,Ki,Histamine H3 receptor [1]; read-out: pKi (converted),794 nM
C[C@H](Cc1c[nH]cn1)/N=C(\c1ccccc1)c1ccccc1O,half-life,[15],> 24 h
C[C@@H]1CCCN1CCc1cc2cc(-c3ccc(C#N)cc3)ccc2o1,bioavailability,[12],52%
same,bioavailability,[16],74%
same,bioavailability,[17],89%
C[C@@H](NC(=O)c1ccco1)C(=O)N1CCN(CCCOc2ccc(C(=O)C3CC3)cc2)CC1,Ki,Histamine H3 receptor [9]; read-out: pKi (converted),0.631 nM
Cc1cc2ncc(-c3ccc4cc(CCN5CCC[C@H]5C)ccc4n3)c(C)n2n1,bioavailability,[2],90%
same,half-life,[3],5.3 h
"C[C@H]1CC[C@H](C)N1CCCOc1ccc(-c2ccc(C(=O)N3CCOCC3)cc2)cc1 (single isomer, unassigned) [A-349,821]",Ki,Histamine H3 receptor [1]; read-out: pKi (converted),1.58 nM
CC(C)(C)CCC#C[C@@H]1C[C@H]1c1c[nH]cn1 [CIPRALISANT],Ki,Histamine H3 receptor [9]; read-out: Ki,0.18 nM
CNC(=O)c1ccc(Oc2ccc3c(c2)CCN(C2CCC2)CC3)nc1 [GSK189254],Ki,Histamine H3 receptor [9]; read-out: pKi (converted),0.631 nM
O=c1c2ccccc2c(Cc2ccc(Cl)cc2)nn1C[C@H]1CCCN1CCCCc1ccc(OCCCN2CCCCCC2)cc1 [GSK-1004723],Ki,Histamine H1 receptor,15.8 nM
c1cc(OCCCN2CCCCC2)ccc1CN1CCCCC1 [JNJ-5207852],half-life,[3],15 h
same,Vd,[18],> 100 L/kg
CCNC(=O)[C@H]1C[C@@](F)(c2ccc(CN3CCCC3)c(F)c2)C1 [PF-03654746],minimal effective dose,Rattus norvegicus [19],1 mg/kg
same,minimal effective dose,Rattus norvegicus [20],3.2 mg/kg
same,minimal effective dose,Rattus norvegicus [21],0.32 mg/kg
